Reference: US7618630B2, “Methods of treating multiple myeloma and myeloma-induced bone resorption using integrin antagonists” (Board of Regents, The University of Texas System, priority 1998, dated 2009)
“Also recorded” adds a separate entry of the source. Blank lines part the entries; values can stand above or below the molecule they belong to.

Columns and labels:
[1] = molecular target: VCAM-1 expressed on ST2 mouse bone marrow stromal cells (murine) (UniProt P29533); assay: cell-based or functional assay
Chain of VCAM-1 expressed on ST2 mouse bone marrow stromal cells (murine) (P29533 25-739): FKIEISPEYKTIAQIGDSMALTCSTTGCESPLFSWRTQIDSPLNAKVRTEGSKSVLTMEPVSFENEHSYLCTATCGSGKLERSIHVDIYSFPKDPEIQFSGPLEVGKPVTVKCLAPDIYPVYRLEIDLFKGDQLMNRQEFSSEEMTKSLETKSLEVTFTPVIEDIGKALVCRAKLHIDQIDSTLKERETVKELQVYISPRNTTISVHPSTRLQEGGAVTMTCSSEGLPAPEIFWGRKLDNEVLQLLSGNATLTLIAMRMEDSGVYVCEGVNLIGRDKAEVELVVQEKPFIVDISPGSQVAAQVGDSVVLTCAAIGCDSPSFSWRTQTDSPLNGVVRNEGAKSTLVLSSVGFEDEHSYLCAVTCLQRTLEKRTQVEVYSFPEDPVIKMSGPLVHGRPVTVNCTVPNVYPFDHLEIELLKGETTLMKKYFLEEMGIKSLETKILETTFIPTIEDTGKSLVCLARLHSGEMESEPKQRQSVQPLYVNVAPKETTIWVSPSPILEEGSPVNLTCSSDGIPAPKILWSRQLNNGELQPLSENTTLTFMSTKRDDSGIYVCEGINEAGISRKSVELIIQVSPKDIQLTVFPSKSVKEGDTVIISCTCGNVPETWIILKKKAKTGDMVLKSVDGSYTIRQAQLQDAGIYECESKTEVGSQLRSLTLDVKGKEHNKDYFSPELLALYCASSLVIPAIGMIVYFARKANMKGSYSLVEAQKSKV

VLA-4 and VLA-5 = settings: cited from earlier work
VLA-4 = VLA-4 (Homo sapiens, UniProt P05556+P13612); settings: cited from earlier work
Chain of VLA-4 (P13612 34-1032): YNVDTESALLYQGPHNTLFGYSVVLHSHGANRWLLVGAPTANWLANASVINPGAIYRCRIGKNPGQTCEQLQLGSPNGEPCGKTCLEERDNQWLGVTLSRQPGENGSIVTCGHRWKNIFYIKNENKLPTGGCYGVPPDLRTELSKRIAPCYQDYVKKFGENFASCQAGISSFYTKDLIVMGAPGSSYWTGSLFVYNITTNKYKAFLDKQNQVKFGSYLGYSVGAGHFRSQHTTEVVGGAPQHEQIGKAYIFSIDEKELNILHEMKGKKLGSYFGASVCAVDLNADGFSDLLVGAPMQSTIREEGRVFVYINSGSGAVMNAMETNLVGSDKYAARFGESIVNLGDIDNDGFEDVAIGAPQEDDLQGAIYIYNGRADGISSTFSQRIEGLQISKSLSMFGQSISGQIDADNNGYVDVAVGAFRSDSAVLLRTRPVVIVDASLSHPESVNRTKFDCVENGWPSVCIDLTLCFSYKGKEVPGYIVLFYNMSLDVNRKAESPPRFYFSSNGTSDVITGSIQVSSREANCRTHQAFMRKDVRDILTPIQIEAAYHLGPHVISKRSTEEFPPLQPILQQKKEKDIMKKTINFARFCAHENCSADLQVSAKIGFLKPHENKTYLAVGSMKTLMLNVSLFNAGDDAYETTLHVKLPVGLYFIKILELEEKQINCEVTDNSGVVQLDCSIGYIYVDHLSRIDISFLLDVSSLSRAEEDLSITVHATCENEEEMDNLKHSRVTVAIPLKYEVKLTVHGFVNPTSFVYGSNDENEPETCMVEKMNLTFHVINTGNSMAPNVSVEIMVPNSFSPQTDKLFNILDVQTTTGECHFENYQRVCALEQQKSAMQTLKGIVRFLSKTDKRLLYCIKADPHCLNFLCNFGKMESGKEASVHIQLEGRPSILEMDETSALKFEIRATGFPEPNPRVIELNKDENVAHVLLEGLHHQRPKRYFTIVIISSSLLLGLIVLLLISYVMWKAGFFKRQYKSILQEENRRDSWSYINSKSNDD
Chain of VLA-4 (P05556 21-798): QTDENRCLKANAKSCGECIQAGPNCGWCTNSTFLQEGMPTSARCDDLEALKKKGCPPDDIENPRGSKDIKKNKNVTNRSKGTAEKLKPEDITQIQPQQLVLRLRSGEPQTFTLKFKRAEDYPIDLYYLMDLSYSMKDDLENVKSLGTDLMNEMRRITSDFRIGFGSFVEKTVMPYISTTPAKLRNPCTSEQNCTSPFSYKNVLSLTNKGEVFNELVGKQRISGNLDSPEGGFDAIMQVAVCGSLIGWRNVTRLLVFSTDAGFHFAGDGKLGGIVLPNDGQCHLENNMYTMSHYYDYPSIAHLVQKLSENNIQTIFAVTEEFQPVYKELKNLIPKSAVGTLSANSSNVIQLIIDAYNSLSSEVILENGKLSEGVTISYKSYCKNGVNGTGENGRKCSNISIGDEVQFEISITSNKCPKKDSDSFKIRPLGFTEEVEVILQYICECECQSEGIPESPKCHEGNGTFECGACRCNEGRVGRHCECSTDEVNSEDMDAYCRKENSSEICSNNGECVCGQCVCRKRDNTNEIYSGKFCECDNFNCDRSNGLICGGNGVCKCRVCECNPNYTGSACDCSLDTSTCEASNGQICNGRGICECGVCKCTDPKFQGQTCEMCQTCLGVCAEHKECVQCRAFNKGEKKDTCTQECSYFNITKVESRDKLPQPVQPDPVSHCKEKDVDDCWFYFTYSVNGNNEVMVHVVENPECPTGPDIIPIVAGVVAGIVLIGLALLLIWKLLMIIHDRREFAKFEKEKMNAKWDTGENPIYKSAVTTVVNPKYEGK

[2] = test system: 5TGM1 mouse myeloma cells; assay: α4Ab and melphalan in 5TGM1-inoculated xid-nu-bg mice; type: in vivo
Experimental: Here, we studied the effects of a neutralizing antibody to α4 integrin (α4Ab), which disrupts stromal cells/myeloma cell interactions, on the sensitivity of myeloma to melphalan, a most widely-used chemotherapeutic agent for myeloma, using the 5TGM1 mouse myeloma cells that reproducibly cause extensive osteolysis in tumor-bearing animals. The α4Ab (100-200 μg/mouse, i.p., 2 or 3 times a week) and melphalan (50, 100, 200 μg/mouse, i.p., once a week) were administered following inoculation of 5TGM1 cells in the tail vein in male xid-nu-bg mice.

5TGM1 myeloma cells [3] = assay: Combined effects of melphalan and anti-alpha 4 integrin Ab in 5TGM1 model (scid/nu/bg mice, day 28); type: in vivo; settings: mAb 200 μg first week then 100 μg, melphalan three times
Experimental: In one particular set of experiments on the combined effects of melphalan and anti-alpha 4 integrin Ab in 5TGM1 model, as shown in an experimental protocol in FIG. 7, an initial high dose of 200 μg mAb was given during the first week, followed by a maintenance dose of 100 μg. Melphalan was given three times. Animals (scid/nu/bg mice) were sacrificed at day 28 and serum IgG2b levels (a surrogate marker of tumor burden) and tumor burden in bone were measured (histomorphometric analysis of bones). […] The data were a summary of two experiments combined.

5TGM1 myeloma cells [4] = assay: Survival by onset of hindleg paralysis of 5TGM1-bearing mice, melphalan and PS/2 mAb; type: in vivo, scid/nu/bg mice
Experimental: We also examined the effects of the combined administration of melphalan (100 μg/mouse) and PS/2 mAb on survival of 5TGM1-bearing mice (scid/nu/bg mice). We evaluated survival by the onset of hindleg paralysis (i.e., the onset of hindleg paralysis was the end-point in these experiments). […] Thus, we can reduce the dose of Melphalan to a quarter in the presence of the anti-α4Ab, as compared to melphalan alone.

GFP+ 5TGM1 myeloma cells = assay: Combination treatment with PS/2 and melphalan in C57BL/KaLwRij model of multiple myeloma; type: in vivo, C57BL/KaLwRij mice; settings: day 27
Description: Additive/synergistic effects of the combination of PS/2 mAb and melphalan were seen under most conditions. In these experiments, the 5TGM1 cells injected into the animals were transfected with an expression vector containing the GFP gene. These myeloma cells expressed the GFP protein, allowing the myeloma cells to be tracked directly as GFP+ myeloma cells. These myeloma cells could also be tracked as mIgG2b positive cells. The data were only useful on day 27.

[5] = molecular target: integrin VLA-4 expressed on 5TGM1 murine myeloma cells (murine) (UniProt Q00651); assay: cell-based or functional assay
Chain of integrin VLA-4 expressed on 5TGM1 murine myeloma cells (murine) (Q00651 41-1039, chain 1 of 2): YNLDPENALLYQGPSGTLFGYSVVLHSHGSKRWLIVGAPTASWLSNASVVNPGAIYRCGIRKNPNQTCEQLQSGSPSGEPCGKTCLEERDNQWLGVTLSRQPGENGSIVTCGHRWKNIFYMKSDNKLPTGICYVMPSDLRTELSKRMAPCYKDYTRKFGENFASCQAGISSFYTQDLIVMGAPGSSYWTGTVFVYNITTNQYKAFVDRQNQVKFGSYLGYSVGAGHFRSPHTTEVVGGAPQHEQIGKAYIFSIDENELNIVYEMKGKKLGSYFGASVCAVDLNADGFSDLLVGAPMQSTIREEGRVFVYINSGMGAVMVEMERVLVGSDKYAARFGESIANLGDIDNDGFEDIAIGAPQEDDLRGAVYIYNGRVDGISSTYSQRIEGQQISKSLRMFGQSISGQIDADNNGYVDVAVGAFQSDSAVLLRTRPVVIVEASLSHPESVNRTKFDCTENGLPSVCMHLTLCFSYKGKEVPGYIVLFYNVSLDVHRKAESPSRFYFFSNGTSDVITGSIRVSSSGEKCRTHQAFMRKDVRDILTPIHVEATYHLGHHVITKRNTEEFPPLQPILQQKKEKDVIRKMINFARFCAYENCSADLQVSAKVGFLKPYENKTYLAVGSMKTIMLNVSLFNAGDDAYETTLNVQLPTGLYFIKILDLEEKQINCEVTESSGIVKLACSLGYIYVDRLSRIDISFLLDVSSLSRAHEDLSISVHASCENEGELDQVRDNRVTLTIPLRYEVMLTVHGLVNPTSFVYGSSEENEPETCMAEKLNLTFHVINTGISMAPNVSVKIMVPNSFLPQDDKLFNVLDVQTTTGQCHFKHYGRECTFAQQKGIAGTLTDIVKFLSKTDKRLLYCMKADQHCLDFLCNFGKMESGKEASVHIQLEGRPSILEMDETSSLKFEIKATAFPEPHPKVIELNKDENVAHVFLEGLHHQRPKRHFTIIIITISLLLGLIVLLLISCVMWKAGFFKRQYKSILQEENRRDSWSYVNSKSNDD
Chain of integrin VLA-4 expressed on 5TGM1 murine myeloma cells (murine) (P09055 21-798, chain 2 of 2, further chain): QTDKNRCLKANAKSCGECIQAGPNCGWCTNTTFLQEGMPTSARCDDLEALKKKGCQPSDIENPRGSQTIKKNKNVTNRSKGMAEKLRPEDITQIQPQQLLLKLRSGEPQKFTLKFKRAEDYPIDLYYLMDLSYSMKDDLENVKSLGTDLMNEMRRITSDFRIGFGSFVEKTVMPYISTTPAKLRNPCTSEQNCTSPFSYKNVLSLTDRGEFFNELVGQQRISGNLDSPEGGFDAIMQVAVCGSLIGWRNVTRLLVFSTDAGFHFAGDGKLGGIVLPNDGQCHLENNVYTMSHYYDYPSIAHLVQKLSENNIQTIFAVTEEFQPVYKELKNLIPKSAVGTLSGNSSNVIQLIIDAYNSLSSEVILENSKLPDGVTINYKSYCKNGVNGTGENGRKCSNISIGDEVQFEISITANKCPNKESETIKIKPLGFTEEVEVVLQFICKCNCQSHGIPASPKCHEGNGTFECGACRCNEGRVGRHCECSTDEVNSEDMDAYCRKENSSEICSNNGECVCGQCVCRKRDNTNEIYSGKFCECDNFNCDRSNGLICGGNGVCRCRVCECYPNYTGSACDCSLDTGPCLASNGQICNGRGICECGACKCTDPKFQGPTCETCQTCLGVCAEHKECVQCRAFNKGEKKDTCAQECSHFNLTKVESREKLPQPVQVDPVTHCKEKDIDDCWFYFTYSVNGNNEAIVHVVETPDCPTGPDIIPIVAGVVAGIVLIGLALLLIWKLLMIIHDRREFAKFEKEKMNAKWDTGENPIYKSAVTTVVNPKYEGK

[6] = test system: 45Ca-labeled fetal rat long bones; assay: Bone resorption in organ cultures of 45Ca-labeled fetal rat long bones; type: cell-based
Experimental: Conditioned media harvested from 5TGM1 cultures were assayed for bone-resorbing activity by organ cultures of 45Ca-labeled fetal rat long bones as described previously (Mbalaviele 1995). Pregnant rats were injected with 250 uCi of 45Ca (New England Nuclear) on the 18th day of gestation. Radius and ulna bone shafts were obtained from 19-day fetuses by microdissection, and precultured for 24 h in BGJ medium (Sigma) supplemented with 0.1% BSA between air and liquid-phase on stainless mesh grids. Bones were then cultured in the presence of conditioned media (50% v/v) or in control medium for 120 hours. The media were changed once at 48 hours. At the end of the culture, bones were incubated in ice-cold 5% trichloroacetic acid for 2 h, and 45Ca radioactivity in bones and media determined in a liquid scintillation counter. Bone resorption was quantitated as the percentage of 45Ca released into the medium from bones as calculated by: (45Ca count in medium)/(45Ca count in medium and bone)×100.

5TGM1 cells = assay: Osteoclastogenic activity of conditioned medium of sVCAM-1-treated 5TGM1 cells in mouse marrow cultures; type: cell-based; settings: 6 days, 1×10^−7 M sVCAM-1
Experimental: Conditioned medium was harvested from 5TGM1 cells cultured in the presence or absence of sVCAM-1 (1×10^−8 to 1×10^−7 Molar) for 24 hours. Osteoclastogenic activity of these conditioned media was assayed in the mouse marrow cultures. Bone marrow cells (1e6/well) were plated into 48-well plates, and cultured in the presence of conditioned media (hatched bars) or control medium (IMDM) containing the same concentrations of sVCAM-1 (open bars). After 6 days, cultures were fixed and the number of TRAP-positive multinucleated OC-like cells (TRAP+MNC) was determined.

Rank ligand mRNA = assay: Expression of Rank ligand mRNA in 5TGM1 and ST2 cells; type: cell-based, mouse
Description: Because Rank ligand appears to be an important mediator of OCL formation and may be the final common pathway for the effects of osteoclastogenic cytokines on OCL formation, we have examined the expression of Rank ligand in 5TGM1 and ST2 cells both individually and when cocultured. We find that coculture of 5TGM1 and ST2 cells induces Rank ligand mRNA in the ST2 cells.

attachment of 5TGM1 cells to ST2 monolayers [1]: 50 to 80%
Molecule: mAb M/K-2.7 to murine VCAM-1 (antibody)

Molecule: Arg-Cys-Asp-TPro-Cys
inhibition of VLA-4 and VLA-5 adhesion to fibronectin (VLA-4 and VLA-5): can inhibit both VLA-4 and VLA-5 adhesion to fibronectin

Molecule: Leu-Asp-Val-Pro-Ser (LDVPS) [pentapeptide of the fibronectin CS-1 region]
inhibitory activity against fibronectin-dependent cell adhesion (VLA-4): possessed inhibitory activity against fibronectin-dependent cell adhesion

Molecule: N[C@@H](Cc1ccc(N(CCCl)CCCl)cc1)C(=O)O [melphalan]
serum IgG2 levels ([2]; melphalan alone 200 μg/mouse): significantly suppressed
serum IgG2 levels ([2]; melphalan alone 50 and 100 μg/mouse i.p. once a week): failed to suppress serum IgG2 levels
serum IgG2b levels (5TGM1 myeloma cells [3]): only modestly affected
onset of hindleg paralysis (5TGM1 myeloma cells [4]; melphalan 100 μg/mouse and/or anti-α4Ab): had no effect on the onset of hindleg paralysis
onset of hindleg paralysis (5TGM1 myeloma cells [4]; melphalan alone 200 μg/mouse): significantly delayed the onset
mIgG2b plasma levels (GFP+ 5TGM1 myeloma cells): unaffected
percentage of GFP+ myeloma cells in blood (GFP+ 5TGM1 myeloma cells): unaffected
percentage of GFP+ myeloma cells in bone marrow (GFP+ 5TGM1 myeloma cells): Neither melphalan nor PS/2 mAb alone affected
percentage of GFP+ myeloma cells in spleen (GFP+ 5TGM1 myeloma cells): unaffected

Molecule: Glu-Ile-Leu-Asp-Val (EILDV) [pentapeptide of the fibronectin CS-1 region]
inhibitory activity against fibronectin-dependent cell adhesion (VLA-4): possessed inhibitory activity against fibronectin-dependent cell adhesion

attachment of 5TGM1 cells to ST2 monolayers [5]: 50 to 80%
Molecule: mAb PS/2 to VLA-4 (antibody)

B1: sVCAM-1: recombinant soluble VCAM-1 containing the 7 extracellular domains of human VCAM-1 (protein)
chain: FKIETTPESRYLAQIGDSVSLTCSTTGCESPFFSWRTQIDSPLNGKVTNEGTTSTLTMNPVSFGNEHSYLCTATCESRKLEKGIQVEIYSFPKDPEIHLSGPLEAGKPITVKCSVADVYPFDRLEIDLLKGDHLMKSQEFLEDADRKSLETKSLEVTFTPVIEDIGKVLVCRAKLHIDEMDSVPTVRQAVKELQVYISPKNTVISVNPSTKLQEGGSVTMTCSSEGLPAPEIFWSKKLDNGNLQHLSGNATLTLIAMRMEDSGIYVCEGVNLIGKNRKEVELIVQEKPFTVEISPGPRIAAQIGDSVMLTCSVMGCESPSFSWRTQIDSPLSGKVRSEGTNSTLTLSPVSFENEHSYLCTVTCGHKKLEKGIQVELYSFPRDPEIEMSGGLVNGSSVTVSCKVPSVYPLDRLEIELLKGETILENIEFLEDTDMKSLENKSLEMTFIPTIEDTGKALVCQAKLHIDDMEFEPKQRQSTQTLYVNVAPRDTTVLVSPSSILEEGSSVNMTCLSQGFPAPKILWSRQLPNGELQPLSENATLTLISTKMEDSGVYLCEGINQAGRSRKEVELIIQVTPKDIKLTAFPSESVKEGDTVIISCTCGNVPETWIILKKKAETGDTVLKSIDGAYTIRKAQLKDAGVYECESKNKVGSQLRSLTLDVQGRENNKDYFSPE
bone resorption by conditioned medium of 5TGM1 treated with sVCAM-1 [6]: increased bone resorption in fetal rat long bones in a dose-dependent manner
bone resorption, soluble VCAM-1 itself [6]: had no effects on bone resorption
OC-like cell (TRAP(+)MNC) formation by conditioned medium from 5TGM1 cells treated with sVCAM-1 (5TGM1 cells): showed increased activity of OC-like cell formation; also recorded: increased TRAP(+)MNC formation
Rank ligand expression in 5TGM1 cells (Rank ligand mRNA; 5TGM1 cells treated with sVCAM-1): they do so when treated with sVCAM-1
Rank ligand mRNA in ST2 cells (Rank ligand mRNA; conditioned medium from 5TGM1 cells treated with sVCAM-1): induced Rank ligand mRNA in ST2 cells
